Laboratory results taken from patent US12214076B2, “Drug delivery vehicles for atherosclerosis nanomedicine” (Northwestern University, priority 2019, dated 2025).

Columns and labels:
[1] = system: inducible nitric oxide synthase (iNOS); experiment: iNOS expression by flow cytometry; type: cell-based, mouse; conditions: vs. stimulated control
[2] = Nile Red assay, critical aggregation concentration; type: physicochemical; conditions: PBS, aged 24 hours at 4° C.
Method: Nile Red assay: The critical aggregation concentration (CAC) for PA nanofibers was determined by diluting the PAs in Nile Red solution. Nile Red undergoes a blue shift in fluorescence as the hydrophobic character of PAs in the solvent increases, with a corresponding increase in fluorescence intensity due to reduced twisted intramolecular charge transfer. 10% MMP- and ROS-Ac2-26 PAs were diluted from 1 mM to 100 nM in PBS containing of 2.5 μM Nile Red and aged for 24 hours at 4° C. The PAs were aliquoted in triplicate onto a 96-well plate, excited at 550 nm, and the fluorescence read from […]. The CAC was determined by plotting the log of the concentration with the corresponding maximum fluorescence intensity, and calculating the concentration at the intersection of the baseline and tangent line to the rising curve.

J774.2 macrophages = experiment: Cellular uptake and localization of ApoA1-Ac2-26 PA; type: cell-based, mouse
Method: Cellular uptake and localization of ApoA1-Ac2-26 PA: PAs containing 40 mol % ApoA1 PA, 10 mol % MMP-Ac2-26 or ROS-Ac2-26 PA, 45.5 mol % E2 filler PA, and 4.5 mol % E2 filler PA with AF546 were co-assembled as described above and aged at least 1 week in PBS at 4° C. to promote nanofiber formation. Macrophages were seeded onto 6-channel μ-Slide VI 0.4 (ibidi) at 2.1×10^5 cells/cm^2 and allowed to adhere for 24 hours before adding 0.33 μM 10% MMP- or ROS-Ac2-26 PA and incubated at 37° C. for 1 or 24 hours. At each time point, the samples were fixed with 4% paraformaldehyde for 10 minutes, followed by permeabilization with 0.125% Triton-X for 10 minutes. The samples were rinsed twice with PBS and incubated with blocking buffer consisting of 2% w/v BSA for one hour at room temperature before incubating with 20 μg/mL LAMP1 antibody (rabbit polyclonal, abcam) for 12-18 hours at 4° C. The samples were rinsed twice with PBS containing 0.01% Tween-20 at one hour per rinse followed by an hour rinse with PBS before adding 2 μg/mL donkey anti-rabbit Alexa Fluor Plus 647 (Highly cross-adsorbed secondary antibody, Invitrogen) for 12-18 hours at 4° C. The samples were rinsed twice with PBS before adding 5 μg/mL 4′,6-Diamidino-2-Phenylindole (DAPI, ThermoFisher Scientific) and phalloidin (1:1000 dilution, CruzFluor™ 488 conjugate, Santa Cruz Biotechnology) for one hour at room temperature. Samples were rinsed and stored in PBS until image analysis. Microscopy was performed using Zeiss 880 confocal microscopy at 63× magnification with numerical aperture of 1.4. Lasers at 405, 488, 561, and 633 nm were used to collect images through Multi Channel acquisition, which uses a separate scan for each channel to avoid spectral overlap. 3D images were created using z-stacks with 9-14 μm thick sections compiled from 0.22 μm slices using a line step of 1, speed of 8, and image size of 1024×1024 pixels at 16 bit depth. To examine colocalization of PAs to endosomes/lysosomes, Manders coefficient calculations using the Coloc 2 plugin from Fiji were used.

[3] = TEM nanofiber length of ApoA1-Ac2-26 PA co-assemblies; type: physicochemical; conditions: aged at least 24 hours at 4° C.
Method: TEM: Conventional TEM images were taken on a FEI Tecnai T-12 TEM at 80 kV with a Gatan Orius® 2 k×2 k CCD camera. PAs at 1 mM in phosphate buffered saline (PBS) were prepared for TEM by pipetting 8 μL atop copper supports that were covered with thin carbon foil 400-mesh and treated with glow discharge. After two minutes, samples were rinsed with deionized water and stained with 2% uranyl acetate for two minutes before imaging. PA nanofiber length was quantified manually using Fiji open source image processing software.

## 10% MMP-Ac2-26 PA: co-assembly of 10 mol % MMP-Ac2-26 PA, 50 mol % E2 filler PA, and 40% ApoA1 PA (VVAAEEGGGPQGIWGQGKAMVSEFLKQAWFIENEEQEYVQTVK)
[1]
  intracellular iNOS expression of stimulated macrophages: no effect upon iNOS expression
[2]
  critical aggregation concentration (CAC): ~32 µM
J774.2 macrophages; 24 hours of treatment
  average Manders coefficient, LAMP1 to PA colocalization: 0.79
  average Manders coefficient, PA to LAMP1 colocalization: 0.48
J774.2 macrophages; confocal microscopy
  cellular retention of PAs: found in the extracellular space
[3]
  median nanofiber length: 159 nm
